Results from US20200123208A1, “PEPTIDES AND NEMATICIDAL COMPOSITIONS” (priority 2017, published 2020).

Tests used:
Type in all cases: in vivo
[1] = tested on: Meloidogyne incognita infective stage juveniles (J2s); assay: Chemosensory (chemotaxis) assay towards root exudate, M. incognita J2s; conditions: for chemotaxis index (Cl) towards root exudate: M. incognita J2s
Description: (§1) Predicted uNLPs from both M. incognita and G. pallida were synthesised by EZBiolab and dissolved into pH adjusted ddH2O to make a 5 mM stock which was aliquoted and stored at −20° C. J2s of both M. incognita and G. pallida were incubated for 24 hours in 200 μl of each peptide in a 24 well plate (SPL Lifesciences, South Korea) at a defined concentration.
(§2) A 60 mm Petri dish was divided into two segments, a positive and a negative side, with a 0.5 cm ‘dead zone’ either side of the centre point. The petri dish was filled with 15 ml of 0.25% w/v agar which was allowed to solidify. 3 ml of 0.25% w/v agar slurry in spring water (pH 7, agitated with a magnetic stirrer for several hours to give a smooth consistency) was added to the petri dish and spread evenly over the surface. Root diffusate (attractant) and water only (control) 0.25% agar plugs were embedded in the agar slurry, either side of the assay arena. Root diffusate was collected from 10 tomato plants, aged 3-6 weeks in 1 litre pots, by pouring 500 ml of ddH2O through the soil three times. Diffusate from each plant was combined, filter sterilised and stored at 4° C. for a maximum of 1 month. Root diffusate agar plugs were made by melting 1.25% agar in ddH2O, cooling to 50° C. before mixing with 4 parts of root diffusate. The agar was then allowed to solidify at room temperature. 100 uNLP pre-treated M. incognita or G. pallida J2s were added by pipette to the centre of the plate. J2s which moved out of the ‘dead zone’ after 3 hours were counted and their location (+/−) scored. The distribution of J2s were used to create a chemotaxis index for each plate, which formed one replicate, a total of 10 replicates where completed for each uNLP treatment.

[2] = tested on: Globodera pallida infective stage juveniles (J2s); assay: Chemosensory (chemotaxis) assay towards root exudate, G. pallida J2s; conditions: 100 μM uNLP, 24 h, mean+/-SEM
Description: as §1, §2

Globodera pallida J2s = assay: B. subtilis and C. reinhardtii plant protection assay, G. pallida; conditions: tomato
Description: Tomato seeds were sterilised with 2.5% NaOCl for 15 minutes, washed 5 times in ddH2O and germinated on 0.5% Murashige and Skoog plates at 23° C. […] Invasion assays were performed by mixing 500 pre-treated M. incognita or G. pallida J2s with agar slurry and a single tomato seedling (2 days post germination) in a 6 well plate. Assays were left at 23° C. for 24 hours in the case of M. incognita and at 18° C. for 24 hours in the case of G. pallida under a 16 hour light and 8 hour darkness cycle. Seedlings were stained using acid fuschin [69] and the number of nematodes within the roots counted.
B. subtilis were grown overnight in LB media containing ampicillin (100 μg/ml) at 37° C. with shaking, and harvested in the log phase of growth determined by measuring OD600nm. Five ml of culture at 0.5 OD was spun down and the pellet mixed with 3 ml of agar slurry and 500 J2s from either G. pallida or M. incognita. C. reinhardtii clones were grown at 23° C. with shaking, cultures in the log phase were measured at OD750 and 5 ml of culture at 0.5 OD was pelleted by centrifugation. C. reinhardtii pellets were mixed with 3 ml of agar slurry and 500 J2s from either G. pallida or M. incognita. Plant invasion assays were performed as described above. […]

[3] = tested on: Steinernema carpocapsae infective juveniles; assay: S. carpocapsae host-finding assay (non-target nematode); conditions: S. carpocapsae IJs, 100 μM, 24 h; no statistically significant impact; control 0.2315
Description: S. carpocapsae were cultured in Galleria mellonella at 23° C. Infective juveniles (IJs) were collected using a White trap in PBS. Freshly emerged IJs were used for each assay. 100 IJs were incubated for 24 hours in 100 μM of selected uNLPs, and host-finding assays performed as in Morris et al..

## SFDSFTGPGFTGLD [Mi-NLP-15b]
[1]; 100 μM uNLP, 24 h, mean+/-SEM
  chemotaxis index (Cl) towards root exudate: −0.3408+/−0.2207
[1]; Mi-NLP-15b 100 pM, 24 h
  chemotaxis index (Cl) towards root exudate: 0.03117+/−0.1594
[1]; Mi-NLP-15b 1 nM, 24 h
  chemotaxis index (Cl) towards root exudate: −0.07105+/−0.1534
[1]; Mi-NLP-15b 10 nM, 24 h
  chemotaxis index (Cl) towards root exudate: −0.1741+/−0.1724
[1]; Mi-NLP-15b 100 nM, 24 h
  chemotaxis index (Cl) towards root exudate: −0.1195+/−0.1968
[1]; Mi-NLP-15b 1 μM, 24 h
  chemotaxis index (Cl) towards root exudate: −0.1344+/−0.1733
[1]; Mi-NLP-15b 10 μM as printed (last of the series, after 100 pM), 24 h
  chemotaxis index (Cl) towards root exudate: −0.1553+/−0.2642
[1]; Mi-NLP-15b 10 μM, 24 h (dilution series)
  chemotaxis index (Cl) towards root exudate: −0.03579+/−0.1504
[1]; Mi-NLP-15b 100 μM, 24 h (dilution series)
  chemotaxis index (Cl) towards root exudate: −0.3782+/−0.07224
[1]; serial dilution, 24 h exposure
  lowest concentration inhibiting M. incognita chemosensation: 10 pM
[2]
  chemotaxis index (Cl) towards root exudate: −0.04762+/−0.1983
Globodera pallida J2s; B. subtilis secreting the uNLP
  G. pallida invasion relative to control groups: 51.98%+/−13.29
Globodera pallida J2s; C. reinhardtii expressing the uNLP
  G. pallida invasion relative to controls: 30.95%+/−9.021
[3]
  insect host-finding index (Cl) towards Galleria mellonella: 0.2225+/−0.043
